Here are results for three compounds from patent US20260265256A1 (IMPACT THERAPEUTICS (SHANGHAI), INC., priority 2023, published 2026).

Assay [1] addresses recombinant poly(ADP-ribose) polymerase 2 (PARP2) (Homo sapiens, UniProt Q9UGN5). The assay is described as follows: PARP2 chemiluminescent assay. The following applies: PARP2 enzyme activity, chemiluminescence, 40 ng enzyme/well. The assay is classed as biochemical.
The next assay has as its system MDA-MB-436 cells. The assay is described as follows: Growth inhibition assay against BRCA mutant human breast cancer MDA-MB-436 cell line (CCK-8, 7 days). The assay is classed as cell-based. The following applies: 168 h, MDA-MB-436, 7 days, read-out: IC50 (nM), proliferation of human breast cancer cells MDA-MB-436. The method in brief:
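Seeded 3000 cells/well overnight, then exposed to test compound (0.10% DMSO control) for 7 days at 37 °C, 5% CO2, with compound-containing medium changed on day 4. CCK-8 added for 4 h; OD = A450 − A650. Survival % relative to DMSO after background subtraction, plotted against concentration for IC50.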

The target in assay [2] is recombinant poly(ADP-ribose) polymerase 1 (PARP1) (Homo sapiens, UniProt P09874). The assay is described as follows: PARP1 chemiluminescent assay. The assay is classed as biochemical. The settings on record: PARP1 enzyme activity, chemiluminescence, 40 ng enzyme/well. As to the method:
The solution of recombinant poly(ADP-ribose) polymerase 1 and 2 (PARP1 and PARP2) (40 ng enzyme/well) and the compounds to be tested were mixed, respectively. The solutions were added to a 96-well plate coated with histone mixture, incubated at room temperature for 1 h, then 50 μL 0.3 ng/mL Streptavidin-HRP was added to each well. The plates were incubated for 30 minutes at room temperature. Finally, the plates were treated with streptavidin-HRP followed by addition of the ELISA ECL substrate to produce chemiluminescence that can be measured using a chemiluminescence reader. Inhibition of the tested compound to PARP1/2 enzyme activity was calculated according to the following formula. [formula] IC50 value is obtained by fitting the s-shaped dose response curve equation by using XL Fit software.

The target of a further assay is T1, PDE3A (Homo sapiens, UniProt Q14432).
T1 construct: purchased Sino Biological 11908-H20B1
The assay can be described thus: PDE3A fluorescence polarization (FP) assay. The following applies: 2 nM PDE3A, 0.2 μM FAM-cAMP, read-out: IC50 (μM), PDE3A enzyme activity. In kind it is biochemical. As to the method: A PDE3A fluorescence polarization (FP) assay in a multi-step format was performed using black, round bottom 384-well plates (Corning, 4514). The testing compounds were serially diluted from stock solutions to 11 concentrations with a 3-fold dilution factor using DMSO. Fifty nL of compound dilutions was mixed with 5 μL of reaction buffer (10 mM Tris-HCl, pH 7.2, 10 mM MgCl2, 0.05% NaN3, 0.1% phosphate-free BSA) containing 0.2 μM FAM-cAMP (BPS, 60200) and 2 nM PDE3A (Sino Biological, 11908-H20B1) enzyme, and incubated for 60 min at 25° C. Afterwards, 15 μL binding agent mixture (Molecular Devices, R8124) was added to each well and the plate was incubated for 60 min at 25° C. The plate was loaded to a BMG PHERAstar FSX to read Fluorescence Polarization (FP) values at a setting of: Ex: 485 nm and Em: 520 nm. Emission light intensity with polarizers parallel (Em|) and emission light intensity with polarizers perpendicular (Em⊥) were recorded. The Polarization (mP) values were calculated using the following formula: mP=(SignalEm|−SignalEm⊥)/(SignalEm|+SignalEm⊥).
Data analysis: • 1) The inhibition % of a compound dose is calculated as:
[formula] • wherein mPMin and mPMax refer to the polarization readings in the condition of substrate only and substrate+enzyme, respectively. • 2) The IC50 values were calculated from non-linear curve fitting using following regression equation using a commercial curve fitting software GraphPad Prism 9.2.0.
wherein X refers to Log of compound concentration and Y refers to % Inhibition.
Table 3 summarize the inhibitory effects of compounds on PDE3A enzyme activity (IC50).
(Fluorescence polarisation rises when a labelled molecule tumbles more slowly, as on binding a larger partner.)

recombinant poly(ADP-ribose) polymerase 2 (PARP2), sequence (Q9UGN5 whole entry): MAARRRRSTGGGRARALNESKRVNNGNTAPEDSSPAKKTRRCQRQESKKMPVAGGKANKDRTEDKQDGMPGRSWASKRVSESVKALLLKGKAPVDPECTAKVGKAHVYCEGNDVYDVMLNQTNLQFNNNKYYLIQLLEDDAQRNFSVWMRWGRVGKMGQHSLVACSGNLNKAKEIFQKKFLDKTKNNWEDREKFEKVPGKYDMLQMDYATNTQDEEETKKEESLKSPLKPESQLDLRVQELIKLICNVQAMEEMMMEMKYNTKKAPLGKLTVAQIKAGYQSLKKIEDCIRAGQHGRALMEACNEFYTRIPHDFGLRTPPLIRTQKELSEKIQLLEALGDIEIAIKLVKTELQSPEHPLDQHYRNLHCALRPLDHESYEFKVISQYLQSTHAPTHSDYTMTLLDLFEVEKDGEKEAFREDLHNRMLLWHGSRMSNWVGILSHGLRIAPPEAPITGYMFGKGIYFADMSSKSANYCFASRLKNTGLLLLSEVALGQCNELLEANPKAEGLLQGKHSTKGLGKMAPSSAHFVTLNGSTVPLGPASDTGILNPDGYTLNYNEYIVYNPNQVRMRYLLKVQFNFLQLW
T1 sequence (Q14432 669-1141 limits assumed): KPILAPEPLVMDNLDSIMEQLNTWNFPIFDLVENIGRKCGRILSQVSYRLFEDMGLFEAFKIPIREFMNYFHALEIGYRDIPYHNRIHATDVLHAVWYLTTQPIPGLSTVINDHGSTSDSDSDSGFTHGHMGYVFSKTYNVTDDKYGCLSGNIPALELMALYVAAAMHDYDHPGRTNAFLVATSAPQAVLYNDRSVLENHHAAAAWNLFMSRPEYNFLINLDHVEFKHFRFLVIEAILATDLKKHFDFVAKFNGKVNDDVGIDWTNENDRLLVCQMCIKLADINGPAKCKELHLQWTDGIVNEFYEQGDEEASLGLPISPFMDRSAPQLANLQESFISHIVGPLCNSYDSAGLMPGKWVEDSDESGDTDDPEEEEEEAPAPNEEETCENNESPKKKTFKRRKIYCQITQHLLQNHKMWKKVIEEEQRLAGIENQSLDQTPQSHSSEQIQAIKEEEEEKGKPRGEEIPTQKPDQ
recombinant poly(ADP-ribose) polymerase 1 (PARP1), sequence (P09874 whole entry): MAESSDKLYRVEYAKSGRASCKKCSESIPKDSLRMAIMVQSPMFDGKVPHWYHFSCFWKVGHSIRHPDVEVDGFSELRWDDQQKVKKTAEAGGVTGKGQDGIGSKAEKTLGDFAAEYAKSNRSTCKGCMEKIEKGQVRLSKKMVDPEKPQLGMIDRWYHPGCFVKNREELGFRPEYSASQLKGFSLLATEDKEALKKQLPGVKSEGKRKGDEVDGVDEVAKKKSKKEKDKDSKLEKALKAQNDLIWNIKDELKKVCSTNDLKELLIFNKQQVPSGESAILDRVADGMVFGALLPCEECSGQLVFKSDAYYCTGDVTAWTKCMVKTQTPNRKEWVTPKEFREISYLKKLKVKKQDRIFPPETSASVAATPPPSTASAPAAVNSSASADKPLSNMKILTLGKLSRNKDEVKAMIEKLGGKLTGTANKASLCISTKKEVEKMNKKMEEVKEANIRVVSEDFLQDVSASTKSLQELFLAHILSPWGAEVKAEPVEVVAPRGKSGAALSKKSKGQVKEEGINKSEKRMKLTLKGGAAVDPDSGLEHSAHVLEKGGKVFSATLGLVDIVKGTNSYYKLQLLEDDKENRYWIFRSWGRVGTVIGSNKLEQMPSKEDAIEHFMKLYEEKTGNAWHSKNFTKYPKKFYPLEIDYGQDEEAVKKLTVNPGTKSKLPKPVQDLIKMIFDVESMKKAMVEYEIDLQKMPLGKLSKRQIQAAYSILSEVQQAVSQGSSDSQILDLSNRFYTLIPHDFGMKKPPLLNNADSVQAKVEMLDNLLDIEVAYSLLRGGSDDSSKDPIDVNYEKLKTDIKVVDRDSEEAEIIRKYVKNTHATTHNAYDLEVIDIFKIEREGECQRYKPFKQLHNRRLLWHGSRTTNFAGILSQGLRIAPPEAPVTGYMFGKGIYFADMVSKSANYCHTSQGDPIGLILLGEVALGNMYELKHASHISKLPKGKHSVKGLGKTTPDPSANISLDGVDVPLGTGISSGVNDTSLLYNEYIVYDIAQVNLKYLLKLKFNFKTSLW

On to `CNC(=O)c1ccc(-n2cc3c(n2)CN(Cc2ccc4c([nH]c(=O)c5c(C(F)(F)F)cnn54)c2F)C3)cn1` [Example 25, 5-(5-((6-fluoro-4-oxo-3-(trifluoromethyl)-4,5-dihydropyrazolo[1,5-a]quinoxalin-7-yl)methyl)-5,6-dihydropyrrolo[3,4-c]pyrazol-2(4H)-yl)-N-methylpicolinamide], for which the IC50 is 21 nM in assay [1], 4.75 nM in the assay on MDA-MB-436 cells and 0.26 nM in assay [2].
With `CCNC(=O)c1ccc(-n2cc3c(n2)CN(Cc2ccc4c([nH]c(=O)c5occc54)c2F)C3)c(F)n1` [Example 55, N-ethyl-6-fluoro-5-(5-((6-fluoro-4-oxo-4,5-dihydrofuro[2,3-c]quinolin-7-yl)methyl)-5,6-dihydropyrrolo[3,4-c]pyrazol-2(4H)-yl)picolinamide], the IC50 in assay [1] was 403 nM; on PDE3A it was more than 30 µM; in the assay with MDA-MB-436 cells it was 0.81 nM.
In the same order, the values of `CCNC(=O)c1ccc(-n2cc3c(n2)CN(Cc2ccc4c([nH]c(=O)c5cc(F)nn54)c2F)C3)c(F)n1` [Example 57, 5-(5-((2,6-difluoro-4-oxo-4,5-dihydropyrazolo[1,5-a]quinoxalin-7-yl)methyl)-5,6-dihydropyrrolo[3,4-c]pyrazol-2(4H)-yl)-N-ethyl-6-fluoropicolinamide] are more than 10000 nM, more than 30 µM and 1.56 nM.
